In ChEMBL document CHEMBL3875166, “Synthesis and biological evaluation of new 6-hydroxypyridazinone benzisoxazoles: Potential multi-receptor-targeting atypical antipsychotics” (Eur J Med Chem, 2016):

Key:
D(2) dopamine receptor = D(2) dopamine receptor (Rattus norvegicus, UniProt P61169); test: Displacement of [3H]spiperone from dopamine D2 receptor in Sprague-Dawley rat striatum incubated for 30 mins by liquid scintillation counting analysis
[1] = target: 5-hydroxytryptamine receptor 2A (Rattus norvegicus, UniProt P14842); test: Displacement of [3H] ketanserin from 5-HT2A receptor in Sprague-Dawley rat cerebral cortex incubated for 30 mins by liquid scintillation counting analysis
[2] = target: T1, 5-hydroxytryptamine receptor 1A (Rattus norvegicus, UniProt P19327); test: Displacement of [3H]8-OH-DPAT from 5-HT1A receptor in Sprague-Dawley rat cerebral cortex incubated for 30 mins by liquid scintillation counting analysis
T1 sequence (P19327 whole entry): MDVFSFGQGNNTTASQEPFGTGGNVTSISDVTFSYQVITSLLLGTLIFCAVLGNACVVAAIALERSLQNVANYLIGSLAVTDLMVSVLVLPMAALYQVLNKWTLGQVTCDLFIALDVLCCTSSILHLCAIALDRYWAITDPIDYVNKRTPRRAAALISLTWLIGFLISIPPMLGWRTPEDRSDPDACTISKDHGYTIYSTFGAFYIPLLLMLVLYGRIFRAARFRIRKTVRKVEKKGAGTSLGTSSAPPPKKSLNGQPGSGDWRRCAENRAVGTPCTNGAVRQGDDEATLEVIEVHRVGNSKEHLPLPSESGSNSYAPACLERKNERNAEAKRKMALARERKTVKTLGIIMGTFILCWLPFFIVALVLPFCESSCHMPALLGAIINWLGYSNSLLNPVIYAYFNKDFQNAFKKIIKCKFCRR

5-hydroxytryptamine receptor 2A, sequence (P14842 whole entry): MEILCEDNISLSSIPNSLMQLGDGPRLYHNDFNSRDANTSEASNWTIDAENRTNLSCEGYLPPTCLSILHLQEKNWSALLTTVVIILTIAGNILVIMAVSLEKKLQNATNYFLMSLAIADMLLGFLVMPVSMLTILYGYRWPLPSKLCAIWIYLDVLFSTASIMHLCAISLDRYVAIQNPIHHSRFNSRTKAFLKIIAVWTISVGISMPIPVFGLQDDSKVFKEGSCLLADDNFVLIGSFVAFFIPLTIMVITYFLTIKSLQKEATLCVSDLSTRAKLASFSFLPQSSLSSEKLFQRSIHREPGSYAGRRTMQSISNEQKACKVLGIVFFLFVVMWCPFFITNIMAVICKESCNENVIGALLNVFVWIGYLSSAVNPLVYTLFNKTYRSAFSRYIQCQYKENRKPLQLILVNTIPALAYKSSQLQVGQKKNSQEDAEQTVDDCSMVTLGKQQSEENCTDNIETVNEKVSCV
D(2) dopamine receptor, sequence (P61169 whole entry): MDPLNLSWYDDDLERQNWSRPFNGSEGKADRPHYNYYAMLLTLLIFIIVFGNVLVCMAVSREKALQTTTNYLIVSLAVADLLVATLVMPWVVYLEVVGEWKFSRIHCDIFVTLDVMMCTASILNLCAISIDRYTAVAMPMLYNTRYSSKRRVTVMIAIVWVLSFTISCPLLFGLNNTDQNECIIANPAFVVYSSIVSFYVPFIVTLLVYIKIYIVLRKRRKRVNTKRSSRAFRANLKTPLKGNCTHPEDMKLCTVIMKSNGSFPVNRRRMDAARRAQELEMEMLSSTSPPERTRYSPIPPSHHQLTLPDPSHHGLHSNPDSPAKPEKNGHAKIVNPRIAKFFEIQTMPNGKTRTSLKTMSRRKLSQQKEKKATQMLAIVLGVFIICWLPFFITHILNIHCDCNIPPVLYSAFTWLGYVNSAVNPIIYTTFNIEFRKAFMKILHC

Row | Structure (SMILES) | Ki (D(2) dopamine receptor) [nM] | Ki [1] [nM] | Ki [2] [nM]
1 | Cc1c(OCCCN2CCC(c3noc4cc(F)ccc34)CC2)nn(-c2ccc(Cl)c(Cl)c2)c(=O)c1C | 38.3 | 91.3 | 121
2 | O=c1ccc(OCCCN2CCC(c3noc4cc(F)ccc34)CC2)nn1-c1ccc(Cl)cc1 | 28.1 | 12.3 | 89
3 | O=c1ccc(OCCCN2CCN(c3ccccn3)CC2)nn1-c1ccc(Cl)c(Cl)c1 | > 10000 | 143 | 157
4 | Cc1cccc(N2CCN(CCCOc3ccc(=O)n(-c4ccc(Cl)c(Cl)c4)n3)CC2)c1C | > 10000 | 81.2 | 5530
5 | O=c1ccc(OCCCN2CCN(c3ccc(F)cc3)CC2)nn1-c1ccc(Cl)c(Cl)c1 | 953 | 64.5 | 55.4
6 | O=c1ccc(OCCCCCN2CCC(c3noc4cc(F)ccc34)CC2)nn1-c1ccc(Cl)c(Cl)c1 | 40.3 | 25.3 | 326
7 | O=c1ccc(OCCCN2CCC(c3noc4cc(F)ccc34)CC2)nn1-c1ccc(F)c(Cl)c1 | 45.3 | 12.3 | 89
8 | Cc1ccc(-n2nc(OCCCN3CCC(c4noc5cc(F)ccc45)CC3)ccc2=O)cc1 | 33.1 | 55.4 | 34.2
9 | COc1ccccc1N1CCN(CCCOc2ccc(=O)n(-c3ccc(Cl)c(Cl)c3)n2)CC1 | 524 | 242 | 56.2
10 | O=c1c2ccccc2c(OCCCN2CCC(c3noc4cc(F)ccc34)CC2)nn1-c1ccc(Cl)c(Cl)c1 | 43.7 | 83.9 | 333
11 | O=c1ccc(OCCCN2CCN(c3ncccn3)CC2)nn1-c1ccc(Cl)c(Cl)c1 | 914 | 1140 | 167
12 | O=c1ccc(OCCCN2CCC(c3noc4cc(F)ccc34)CC2)nn1-c1ccc(F)c(F)c1 | 38.5 | 3.2 | 43.5
13 | O=c1c2c(c(OCCCN3CCC(c4noc5cc(F)ccc45)CC3)nn1-c1ccc(Cl)c(Cl)c1)CCCC2 | 41.8 | 89.6 | 224
14 | O=c1ccc(OCCCN2CCC(c3noc4cc(F)ccc34)CC2)nn1-c1cc(Cl)cc(Cl)c1 | 38.1 | 9.3 | 129
15 | O=c1ccc(OCCCN2CCC(c3noc4cc(F)ccc34)CC2)nn1-c1ccccc1 | 45.5 | 131 | 61.3
16 | O=c1ccc(OCCCCN2CCC(c3noc4cc(F)ccc34)CC2)nn1-c1ccc(Cl)c(Cl)c1 | 26.7 | 34.7 | 117
17 | O=c1ccc(OCCCN2CCC(c3noc4cc(F)ccc34)CC2)nn1-c1ccc2ccccc2c1 | 16.2 | 21.3 | 15.9
18 | O=c1ccc(OCCCN2CCN(c3ccccc3F)CC2)nn1-c1ccc(Cl)c(Cl)c1 | 1200 | 69.5 | 56.5
19 | O=c1ccc(OCCCN2CCC(c3noc4cc(F)ccc34)CC2)nn1-c1cccc(Cl)c1 | 41.1 | 6 | 183

Row | Structure (SMILES) | Ki (D(2) dopamine receptor) [nM] | Ki [1] [nM] | Ki [2] [nM]
20 | O=c1ccc(OCCCN2CCN(c3csc4ccccc34)CC2)nn1-c1ccc(Cl)c(Cl)c1 | 648 | 81.2 | 984
21 | O=c1ccc(OCCCN2CCN(Cc3ccccc3)CC2)nn1-c1ccc(Cl)c(Cl)c1 | > 10000 | 595 | 213
22 | COc1ccc(N2CCN(CCCOc3ccc(=O)n(-c4ccc(Cl)c(Cl)c4)n3)CC2)cc1 | 845 | 543 | 57.3
23 | O=c1ccc(OCCCN2CCC(c3noc4cc(F)ccc34)CC2)nn1-c1ccccc1Cl | 38.5 | 10.3 | 78
24 | O=c1ccc(OCCCN2CCC(c3noc4cc(F)ccc34)CC2)nn1-c1ccc(F)cc1F | 174 | 0.5 | 88.4
25 | NC(=O)c1ccc2occ(N3CCN(CCCOc4ccc(=O)n(-c5ccc(Cl)c(Cl)c5)n4)CC3)c2c1 | 379 | 605 | 64.8
26 | O=c1ccc(OCCCN2CCC(c3noc4cc(F)ccc34)CC2)nn1-c1ccc(F)cc1 | 10.8 | 25.9 | 52.8
27 | O=c1ccc(OCCCN2CCN(c3ccccc3Cl)CC2)nn1-c1ccc(Cl)c(Cl)c1 | 808 | 120 | 1110
28 | O=c1ccc(OCCCN2CCC(c3noc4cc(F)ccc34)CC2)nn1-c1ccc(Cl)c(Cl)c1 | 7.8 | 21.7 | 25
29 | O=c1ccc(OCCCN2CCC(c3noc4cc(F)ccc34)CC2)nn1-c1cc(F)cc(F)c1 | 35.4 | 2.3 | 38.1
30 | O=C(c1ccc(F)cc1)C1CCN(CCCOc2ccc(=O)n(-c3ccc(Cl)c(Cl)c3)n2)CC1 | 179 | 13.8 | 
31 | O=c1ccc(OCCCN2CCN(c3nsc4ccccc34)CC2)nn1-c1ccc(Cl)c(Cl)c1 | 595 | 75.1 | 898
32 | O=c1ccc(OCCCN2CCC(c3c[nH]c4ccccc34)CC2)nn1-c1ccc(Cl)c(Cl)c1 | 499 | 74.5 | 1250
33 | O=c1ccc(OCCCN2CCC(c3nc4ccccc4s3)CC2)nn1-c1ccc(Cl)c(Cl)c1 | > 10000 | 107 | > 10000
34 | O=c1ccc(OCCCN2CCN(c3ccccc3)CC2)nn1-c1ccc(Cl)c(Cl)c1 | 1320 | 359 | 48.1
35 | O=c1ccc(OCCCN2CCN(c3cccc(C(F)(F)F)c3)CC2)nn1-c1ccc(Cl)c(Cl)c1 | 916 | 99.2 | 103
36 | O=c1ccc(OCCCN2CCC(c3noc4cc(F)ccc34)CC2)nn1-c1ccc(Cl)cc1Cl | 0.4 | 0.4 | 191
37 | O=c1ccc(OCCCN2CCN(c3cccc(Cl)c3Cl)CC2)nn1-c1ccc(Cl)c(Cl)c1 | 777 | 627 | 624
